Measurements as given in patent US6369225B1, “Compounds having activity as inhibitors of cytochrome P450RAI” (Allergan Sales, Inc., priority 2000, dated 2002).

Experiments:
RARα [1] = molecular target: T1, RARα (Homo sapiens, UniProt P10276); test: ligand binding assay, RARα; settings: Kd line of EC50/(EFFICACY)/Kd, read-out: RAR Kd α
T1 sequence (P10276 1-462): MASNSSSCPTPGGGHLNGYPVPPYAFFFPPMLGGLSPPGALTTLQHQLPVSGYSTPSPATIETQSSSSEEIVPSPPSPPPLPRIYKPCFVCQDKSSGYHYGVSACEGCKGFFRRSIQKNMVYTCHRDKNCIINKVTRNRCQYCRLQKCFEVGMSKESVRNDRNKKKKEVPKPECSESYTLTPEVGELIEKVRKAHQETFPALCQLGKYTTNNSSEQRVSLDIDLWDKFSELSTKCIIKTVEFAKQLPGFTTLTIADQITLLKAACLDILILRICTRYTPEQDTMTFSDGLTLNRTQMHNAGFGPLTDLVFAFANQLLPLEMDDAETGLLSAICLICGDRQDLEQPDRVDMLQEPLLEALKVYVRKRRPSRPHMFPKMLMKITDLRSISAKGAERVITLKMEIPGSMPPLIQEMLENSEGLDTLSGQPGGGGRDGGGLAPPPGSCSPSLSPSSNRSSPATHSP

RARβ = molecular target: T2, RARβ (Homo sapiens, UniProt P10826); test: ligand binding assay, RARβ; settings: Kd line of EC50/(EFFICACY)/Kd, read-out: RAR Kd β
T2 sequence (P10826 1-455): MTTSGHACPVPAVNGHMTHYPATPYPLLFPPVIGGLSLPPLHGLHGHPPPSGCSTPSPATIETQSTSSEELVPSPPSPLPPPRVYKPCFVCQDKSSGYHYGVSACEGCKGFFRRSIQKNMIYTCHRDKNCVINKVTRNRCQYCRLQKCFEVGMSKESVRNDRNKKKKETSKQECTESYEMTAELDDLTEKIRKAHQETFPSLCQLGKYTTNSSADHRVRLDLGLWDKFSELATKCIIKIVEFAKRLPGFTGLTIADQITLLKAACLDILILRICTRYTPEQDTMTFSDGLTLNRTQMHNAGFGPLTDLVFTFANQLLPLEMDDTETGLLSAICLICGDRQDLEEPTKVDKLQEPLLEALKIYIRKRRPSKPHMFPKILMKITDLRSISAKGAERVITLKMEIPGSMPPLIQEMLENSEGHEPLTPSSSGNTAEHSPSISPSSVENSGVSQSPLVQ

RARγ = molecular target: T3, RARγ (Homo sapiens, UniProt P13631); test: chimeric receptor transactivation assay, RARγ; assay type: cell-based; settings: EC50 line of EC50/(EFFICACY)/Kd, read-out: RAR EC50 γ
T3 sequence (P13631 185-419 limits assumed): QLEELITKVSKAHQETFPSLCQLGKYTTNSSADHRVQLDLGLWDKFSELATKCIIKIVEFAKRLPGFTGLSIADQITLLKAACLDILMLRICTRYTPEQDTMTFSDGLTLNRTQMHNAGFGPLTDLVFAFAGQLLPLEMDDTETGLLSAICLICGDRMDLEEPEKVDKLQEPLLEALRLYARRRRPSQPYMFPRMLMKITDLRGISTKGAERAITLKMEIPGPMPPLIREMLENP
Source text: (§1) Assays described below measure the ability of a compound to bind to, and/or activate various retinoid receptor subtypes. When in these assays a compound binds to a given receptor subtype and activates the transcription of a reporter gene through that subtype, then the compound is considered an agonist of that receptor subtype. […] In the below described assays the ability of the compounds to bind to RARα, RARβ, RARγ, RXRα, RXRβ and RXRγ receptors, and the ability or inability of the compounds to activate transcription of a reporter gene through these receptor subtypes can be tested.
(§2) As far as specific assays are concerned, a chimeric receptor transactivation assay which tests for agonist-like activity in the RARα, RARβ, AND RARγ, receptor subtypes, and which is based on work published by Feigner P. L. and Holm M. (1989) Focus, 112 is described in detail in U.S. Pat. No. 5,455,265. The specification of U.S. Pat. No. 5,455,265 is hereby expressly incorporated by reference. The numeric results obtained with several preferred compounds of this invention in this assay are shown below in Table 1.

RARα [2] = molecular target: T4, RARα (Homo sapiens, UniProt P10276); test: chimeric receptor transactivation assay, RARα; assay type: cell-based; settings: EC50 line of EC50/(EFFICACY)/Kd, read-out: RAR EC50 α
T4 sequence (P10276 183-462 limits assumed): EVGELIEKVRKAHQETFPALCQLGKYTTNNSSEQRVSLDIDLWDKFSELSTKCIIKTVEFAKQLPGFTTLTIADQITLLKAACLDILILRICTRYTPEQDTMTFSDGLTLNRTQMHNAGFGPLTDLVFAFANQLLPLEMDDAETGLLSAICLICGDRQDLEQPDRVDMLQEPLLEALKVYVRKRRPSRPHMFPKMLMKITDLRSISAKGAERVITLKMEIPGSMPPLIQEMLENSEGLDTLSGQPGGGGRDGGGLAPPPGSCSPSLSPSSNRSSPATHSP
Source text: as §1, §2

## CC(C)OC1(c2ccc(C#Cc3ccc(C(=O)O)cc3)cc2)CC1 [Compound 73, 4-[4-(1-Isopropoxycyclopropyl)-phenylethynyl]-benzoic Acid]
RARα [1]
  Kd: 0.486 µM
RARβ
  Kd: 0.026 µM
RARγ
  EC50: 0.091 µM

## Cc1cc(C#Cc2ccc(C(=O)O)cc2)ccc1C1(OC(C)C)CC1 [Compound 85, 4-[4-(1-Isopropoxycyclopropyl)-3-methyl-phenylethynyl]-benzoic Acid]
RARα [1]
  Kd: 1.86 µM
RARβ
  Kd: 0.24 µM
RARγ
  EC50: 0.0025 µM
RARα [2]
  EC50: 0.976 µM

## CCCNC1(c2ccc(C#Cc3ccc(C(=O)O)cc3)cc2)CC1 [Compound 108, 4-[4-(1-Propylamino-cyclopropyl)-phenylethynyl]-benzoic Acid]
RARα [1]
  Kd: 21 µM
RARβ
  Kd: 0.547 µM
RARγ
  EC50: 0.141 µM
RARα [2]
  EC50: 0.0066 µM

## CC1(C)CCC(=O)c2ccc(C#Cc3ccc(CC(=O)O)cc3)cc21 [Compound 5, 4-[(8,8-Dimethyl-5-oxo-5,6,7,8-tetrahydro-naphthalene-2-yl-ethynyl)-phenyl]-acetic Acid]
RARα [1]
  Kd: 9.15 µM
RARβ
  Kd: 2.81 µM

## CC1(C)CC2(CC2)Oc2ccc(C#Cc3ccc(C(=O)O)cc3)cc21 [Compound 40, Benzoic Acid, 4-[(3,4-dihydro-4,4-dimethylspiro[2H-1-benzopyran-2,1′-cyclopropane]-6-yl)ethynyl]-]
RARα [1]
  Kd: 0.069 µM
RARβ
  Kd: 0.0013 µM
RARγ
  EC50: 0.0068 µM
RARα [2]
  EC50: 0.033 µM

## COC1(c2ccc(C#Cc3ccc(C(=O)O)cc3)cc2)CC1 [Compound 69, 4-[4-(1-Methoxycyclopropyl)-phenylethynyl]-benzoic Acid]
RARα [1]
  Kd: 0.469 µM
RARβ
  Kd: 0.133 µM
RARγ
  EC50: 0.0526 µM
RARα [2]
  EC50: 0.313 µM

## CN(C1CC1)C1CCC(C)(C)c2cc(C#Cc3ccc(C(=O)O)cc3)ccc21 (stereo not shown) [Compound 3, 4-[(5-Cyclopropyl-methyl-amino)-8,8-dimethyl-5,6,7,8-tetrahydro-naphthalene-2yl-ethynyl]-benzoic Acid]
RARα [1]
  Kd: 0.145 µM
RARβ
  Kd: 0.0008 µM
RARγ
  EC50: 0.0098 µM
RARα [2]
  EC50: 0.28 µM

## CCCN(CCC)C1(c2ccc(C#Cc3ccc(C(=O)O)cc3)cc2)CC1 [Compound 110, 4-[4-(1-Dipropylamino-cyclopropyl)-phenylethynyl]-benzoic Acid]
RARα [1]
  Kd: 2.06 µM
RARβ
  Kd: 0.409 µM
RARγ
  EC50: 0.262 µM

## O=C(O)c1ccc(C#Cc2ccc(C3(NCc4ccccc4)CC3)cc2)cc1 [Compound 112, 4-[4-(1-Benzylamino-cyclopropyl)-phenylethynyl]-benzoic Acid]
RARα [1]
  Kd: 5.85 µM
RARβ
  Kd: 0.704 µM

## CCc1cc(C#Cc2ccc(C(=O)O)cc2)ccc1C1(OCc2ccccc2)CC1 [Compound 93, 4-[4-(1-Benzyloxycyclopropyl)-3-ethyl-phenylethynyl]-benzoic Acid]
RARα [1]
  Kd: 3.45 µM
RARβ
  Kd: 0.554 µM
RARγ
  EC50: 0.01 µM
RARα [2]
  EC50: 4.82 µM

## CC1(C)CC2(CC2)Oc2ccc(C#Cc3ccc(C(=O)O)c(F)c3)cc21 [Compound 44, 2-Fluoro-benzoic Acid, 4-[(3,4-dihydro-4,4-dimethylspiro[2H-1-benzopyran-2,1′-cyclopropane]-6-yl)ethynyl]-]
RARα [1]
  Kd: 0.037 µM
RARβ
  Kd: 0.0019 µM
RARγ
  EC50: 0.0075 µM
RARα [2]
  EC50: 0.049 µM

## Cc1cc(C#Cc2ccc(C(=O)O)cc2)ccc1C1(OCC(C)(C)C)CC1 [Compound 89, 4-[4-[1-(2,2-Dimethylpropyloxy)-cyclopropyl]-3-methyl-phenylethynyl]-benzoic Acid]
RARα [1]
  Kd: 3.41 µM
RARβ
  Kd: 0.98 µM
RARγ
  EC50: 0.012 µM
RARα [2]
  EC50: 0.268 µM

## CN(C1CC1)C1CCC(C)(C)c2cc(C#Cc3ccc(CC(=O)O)cc3)ccc21 (stereo not shown) [Compound 8, 4-[(5-(Cyclopropyl-methyl-amino)-8,8-dimethyl-5,6,7,8-tetrahydro-naphthalene-2-yl-ethynyl)-phenyl]-acetic Acid]
RARβ
  Kd: 3.78 µM

## Cc1cc(C#Cc2ccc(C(=O)O)cc2)ccc1C1(OCc2ccccc2)CC1 [Compound 81, 4-[4-(1-Benzyloxycyclopropyl)-3-methyl-phenylethynyl]-benzoic Acid]
RARα [1]
  Kd: 4.21 µM
RARβ
  Kd: 0.846 µM
RARγ
  EC50: 0.183 µM
